Values after ≈ are worked out from the molar mass of the structure shown.
Key:
Assay in all cases: ≥ marks a high value that may be exact or a test limit, other limits are often not marked, values filed in µg/mL are converted to µM
[1] = test system: Escherichia coli ATCC 25922
[2] = test system: Candida albicans ATCC 2002
Bacillus subtilis = test system: Bacillus subtilis
[3] = test system: Staphylococcus aureus ATCC 2592
[4] = test system: Bacillus subtilis ATCC 23857
[5] = test system: Staphylococcus aureus ATCC BAA-1556
Micrococcus luteus = test system: Micrococcus luteus

Compound	MIC [1] [µM]	MIC [5] [µM]	also measured
CC[C@H](C)[C@@H]1NC(=O)[C@H](CO)NC(=O)[C@H](CCCCN)NC(=O)[C@H]([C@@H](C)O)NC(=O)[C@H](Cc2c[nH]c3ccccc23)NC(=O)[C@@H](N)CSSC[C@@H](C(=O)N[C@@H](Cc2ccccc2)C(=O)O)NC(=O)[C@@H]2CCCN2C(=O)[C@H](CCCCN)NC(=O)[C@@H]2CCCN2C(=O)[C@@H]2CCCN2C1=O [CWTKSIPPKPCF]	6.33 (≈ 8.89 µg/mL)	–	MIC [2]: 13.8 µM (≈ 19.4 µg/mL); MIC (Bacillus subtilis): 7.46 µM (≈ 10.5 µg/mL); MIC [3]: 4.24 µM (≈ 5.95 µg/mL)
CC[C@H](C)[C@H](NC(=O)[C@@H](N)Cc1ccccc1)C(=O)N1CCC[C@H]1C(=O)N[C@@H](CC(C)C)C(=O)N[C@H](C(=O)N[C@@H](CO)C(=O)NCC(=O)N[C@@H](CC(C)C)C(=O)N[C@@H](Cc1ccccc1)C(=O)N[C@@H](CO)C(=O)N[C@@H](CCCN=C(N)N)C(=O)N[C@@H](CC(C)C)C(=O)N[C@@H](CC(C)C)C(N)=O)C(C)C [FIPLVSGLFSRLL]	8.55 (≈ 12.5 µg/mL)	–	MIC [2]: 8.55 µM (≈ 12.5 µg/mL); MIC [3]: 4.28 µM (≈ 6.25 µg/mL)
CC[C@H](C)[C@H](NC(=O)CN)C(=O)N[C@H](C(=O)N[C@@H](C)C(=O)NCC(=O)N[C@H](C(=O)N[C@H](C(=O)N[C@H](C(=O)N[C@@H](C)C(=O)N[C@H](C(=O)N[C@@H](CCCCN)C(=O)N[C@@H](CCCCN)C(N)=O)[C@@H](C)CC)[C@@H](C)CC)[C@@H](C)CC)[C@@H](C)CC)[C@@H](C)CC [GIIAGIIIAIKK]	> 128	–	MIC [4]: 8 µM (≈ 9.67 µg/mL)
CC[C@H](C)[C@H](NC(=O)CN)C(=O)N[C@@H](CCCN=C(N)N)C(=O)N[C@@H](CCCN=C(N)N)C(=O)NCC(=O)N[C@H](C(=O)N[C@@H](CCCN=C(N)N)C(=O)N[C@@H](CCCN=C(N)N)C(=O)N[C@H](C(=O)N[C@H](C(=O)N[C@@H](CCCCN)C(=O)N[C@@H](CCCN=C(N)N)C(N)=O)[C@@H](C)CC)[C@@H](C)CC)[C@@H](C)CC [GIRRGIRRIIKR]	> 128	–	MIC [4]: ≥ 128 µM
CC(C)C[C@H](NC(=O)[C@H](CCCCN)NC(=O)[C@H](CC(C)C)NC(=O)[C@H](CC(C)C)NC(=O)[C@H](Cc1c[nH]c2ccccc12)NC(=O)[C@H](CCCCN)NC(=O)[C@H](CC(C)C)NC(=O)[C@H](CC(C)C)NC(=O)[C@H](CCCCN)NC(=O)[C@@H](N)CCCCN)C(N)=O [KKLLKWLLKL]	–	12.5 (≈ 16 µg/mL)	–
CC[C@H](C)[C@H](NC(=O)[C@H](C)NC(=O)[C@H](CCCN=C(N)N)NC(=O)[C@H](CCCN=C(N)N)NC(=O)[C@H](Cc1c[nH]c2ccccc12)NC(=O)[C@@H](N)CCCCN)C(=O)N[C@@H](CCCN=C(N)N)C(=O)N[C@@H](Cc1c[nH]c2ccccc12)C(=O)N[C@@H](CC(C)C)C(N)=O [KWRRAIRWL]	–	25 (≈ 32.1 µg/mL)	–
CC[C@H](C)[C@H](NC(=O)[C@H](CC(C)C)NC(=O)[C@H](CCCN=C(N)N)NC(=O)[C@H](CCCN=C(N)N)NC(=O)[C@H](Cc1c[nH]c2ccccc12)NC(=O)[C@@H](N)CCCCN)C(=O)N[C@@H](CCCN=C(N)N)C(=O)N[C@@H](Cc1c[nH]c2ccccc12)C(=O)N[C@@H](CC(C)C)C(N)=O [KWRRLIRWL]	–	25 (≈ 33.1 µg/mL)	–
CC(C)C[C@H](NC(=O)[C@H](Cc1c[nH]c2ccccc12)NC(=O)[C@H](CCCN=C(N)N)NC(=O)[C@H](CC(C)C)NC(=O)[C@H](Cc1c[nH]c2ccccc12)NC(=O)[C@H](CCCN=C(N)N)NC(=O)[C@H](CCCN=C(N)N)NC(=O)[C@H](Cc1c[nH]c2ccccc12)NC(=O)[C@@H](N)CCCCN)C(N)=O [KWRRWLRWL]	–	3.12 (≈ 4.37 µg/mL)	–
CC(C)C[C@H](NC(=O)[C@H](CC(C)C)NC(=O)[C@H](CC(C)C)NC(=O)[C@H](CC(C)C)NC(=O)[C@H](CC(C)C)NC(=O)[C@H](CCCCN)NC(=O)[C@H](CCCCN)NC(=O)[C@H](CC(C)C)NC(=O)[C@@H](N)CC(C)C)C(N)=O [LLKKLLLLL]	–	12.5 (≈ 13.3 µg/mL)	–
CC(C)C[C@H](NC(=O)[C@H](CC(C)C)NC(=O)[C@H](CC(C)C)NC(=O)[C@H](CC(C)C)NC(=O)[C@H](CCCCN)NC(=O)[C@H](CCCCN)NC(=O)[C@H](CC(C)C)NC(=O)[C@H](CC(C)C)NC(=O)[C@@H](N)CC(C)C)C(N)=O [LLLKKLLLL]	–	≥ 100	–
CC(C)C[C@H](NC(=O)[C@H](CC(C)C)NC(=O)[C@H](CCCCN)NC(=O)[C@H](CC(C)C)NC(=O)[C@H](CCCCN)NC(=O)[C@H](CC(C)C)NC(=O)[C@H](CC(C)C)NC(=O)[C@H](CC(C)C)NC(=O)[C@@H](N)CC(C)C)C(N)=O [LLLLKLKLL]	–	≥ 100	–
CC[C@H](C)[C@H](NC(=O)[C@H](CCC(=O)O)NC(=O)[C@@H]1CCCN1C(=O)[C@H](CO)NC(=O)[C@H](Cc1ccccc1)NC(=O)[C@H](C)NC(=O)[C@@H](NC(=O)CNC(=O)[C@H](CC(C)C)NC(=O)[C@H](CCCCN)NC(=O)[C@H](C)NC(=O)[C@H](C)NC(=O)[C@H](CCSC)NC(=O)[C@@H](NC(=O)[C@@H](NC(=O)[C@@H](NC(=O)[C@H](CC(C)C)NC(=O)[C@H](CS)NC(=O)[C@H](CC(N)=O)NC(=O)CNC(=O)[C@H](CC(C)C)NC(=O)[C@H](CC(C)C)NC(=O)[C@@H](N)CCCN=C(N)N)[C@@H](C)O)C(C)C)C(C)C)[C@@H](C)O)C(=O)N[C@@H](CCC(N)=O)C(=O)N[C@@H](CS)C(=O)N[C@@H](C)C(=O)N[C@@H](Cc1c[nH]c2ccccc12)C(=O)N[C@@H](CCC(N)=O)C(=O)N[C@@H](CCCCN)C(=O)O [RLLGNCLTVVMAAKLGTAFSPEIQCAWQK]	–	–	MIC (Micrococcus luteus): 31.2 µM (≈ 98.3 µg/mL)
CC(C)C[C@H](NC(=O)[C@H](Cc1c[nH]c2ccccc12)NC(=O)[C@H](Cc1c[nH]c2ccccc12)NC(=O)[C@H](CC(C)C)NC(=O)[C@H](Cc1c[nH]c2ccccc12)NC(=O)[C@H](Cc1c[nH]c2ccccc12)NC(=O)[C@H](CC(C)C)NC(=O)[C@H](Cc1c[nH]c2ccccc12)NC(=O)[C@@H](N)CCCN=C(N)N)C(N)=O [RWLWWLWWL]	–	6.25 (≈ 9.02 µg/mL)	–
CC(C)[C@H](N)C(=O)N[C@@H](CCCCN)C(=O)N[C@@H](Cc1c[nH]c2ccccc12)C(=O)N[C@@H](CCCN=C(N)N)C(=O)N[C@@H](Cc1c[nH]c2ccccc12)C(=O)N[C@@H](CCCCN)C(=O)N[C@@H](CCCCN)C(=O)N[C@@H](Cc1c[nH]c2ccccc12)C(=O)N[C@@H](CCCN=C(N)N)C(=O)N[C@@H](Cc1c[nH]c2ccccc12)C(=O)N[C@@H](CCCCN)C(=O)N[C@@H](Cc1c[nH]c2ccccc12)C(=O)N[C@@H](CCCCN)C(=O)N[C@@H](Cc1c[nH]c2ccccc12)C(=O)N[C@@H](CCCCN)C(=O)N[C@H](C(N)=O)C(C)C [VKWRWKKWRWKWKWKV]	> 41.4	–	MIC [2]: ≥ 41.4 µM; MIC (Bacillus subtilis): ≥ 41.4 µM; MIC [3]: ≥ 41.4 µM
CC(C)[C@H](N)C(=O)N[C@@H](CCCCN)C(=O)N[C@@H](Cc1c[nH]c2ccccc12)C(=O)N[C@@H](CCCN=C(N)N)C(=O)N[C@@H](Cc1c[nH]c2ccccc12)C(=O)N[C@@H](CCCCN)C(=O)N[C@@H](Cc1c[nH]c2ccccc12)C(=O)N[C@@H](CCCCN)C(=O)N[C@@H](Cc1c[nH]c2ccccc12)C(=O)N[C@@H](CCCN=C(N)N)C(=O)N[C@@H](Cc1c[nH]c2ccccc12)C(=O)N[C@@H](CCCCN)C(=O)N[C@@H](Cc1c[nH]c2ccccc12)C(=O)N[C@@H](CCCCN)C(=O)N[C@@H](Cc1c[nH]c2ccccc12)C(=O)N[C@@H](CCCCN)C(=O)N[C@H](C(N)=O)C(C)C [VKWRWKWKWRWKWKWKV]	> 38.4	–	MIC [2]: ≥ 38.4 µM; MIC (Bacillus subtilis): ≥ 38.4 µM; MIC [3]: ≥ 38.4 µM
CC(C)C[C@H](NC(=O)[C@H](Cc1c[nH]c2ccccc12)NC(=O)[C@H](Cc1c[nH]c2ccccc12)NC(=O)[C@H](CC(C)C)NC(=O)[C@H](Cc1c[nH]c2ccccc12)NC(=O)[C@@H](N)Cc1c[nH]c2ccccc12)C(=O)N[C@@H](CCCN=C(N)N)C(=O)N[C@@H](Cc1c[nH]c2ccccc12)C(N)=O [WWLWWLRW]	–	6.25 (≈ 8.32 µg/mL)	–
